Experimental data published in article PMC10691697, “A small molecule exerts selective antiviral activity by targeting the human cytomegalovirus nuclear egress complex” (PLOS Pathogens, 2023).
Residue numbers refer to the chain shown, from its start. Values joined by “and” are separate entries in the source; they are usually repeats but may differ in a detail not shown here. Identical values can stand only once.

How the values were obtained:
HSV-1 P30-UL42 [1] = molecular target: T1, HSV-1 P30-UL42 (Human herpesvirus 1, UniProt P10226); test: biochemical; type: binding
T1 construct: containing UL42 residues 1–340; GST (N); glycine-serine linker of the modified pGEX6p plasmid (presence inferred) (N); made in house; host or cells: E. coli (UL42: pLysS BL21)

HCMV UL50-UL53 = molecular target: T2, HCMV UL50-UL53 (Human cytomegalovirus, UniProt P16794); test: biochemical; type: binding; details: for scoring as a hit in the HTRF screen: hit = at least 50 percent inhibition of HTRF signal, ibrutinib up to 50 μM
T2 construct: GST (N, cleaved yes); 13-residue glycine-serine linker […]; made in house; host or cells: E. coli BL21 (DE3) RIPL

HSV-1 P30-UL42 [2] = molecular target: T3, HSV-1 P30-UL42 (Human herpesvirus 1, UniProt P10226); test: biochemical; type: binding; remark: listed apart in the source
T3 construct: containing UL42 residues 1–340; GST (N); glycine-serine linker of the modified pGEX6p plasmid (presence inferred) (N); made in house; host or cells: E. coli (UL42: pLysS BL21)
T3 sequence (P10226 whole entry, looked up): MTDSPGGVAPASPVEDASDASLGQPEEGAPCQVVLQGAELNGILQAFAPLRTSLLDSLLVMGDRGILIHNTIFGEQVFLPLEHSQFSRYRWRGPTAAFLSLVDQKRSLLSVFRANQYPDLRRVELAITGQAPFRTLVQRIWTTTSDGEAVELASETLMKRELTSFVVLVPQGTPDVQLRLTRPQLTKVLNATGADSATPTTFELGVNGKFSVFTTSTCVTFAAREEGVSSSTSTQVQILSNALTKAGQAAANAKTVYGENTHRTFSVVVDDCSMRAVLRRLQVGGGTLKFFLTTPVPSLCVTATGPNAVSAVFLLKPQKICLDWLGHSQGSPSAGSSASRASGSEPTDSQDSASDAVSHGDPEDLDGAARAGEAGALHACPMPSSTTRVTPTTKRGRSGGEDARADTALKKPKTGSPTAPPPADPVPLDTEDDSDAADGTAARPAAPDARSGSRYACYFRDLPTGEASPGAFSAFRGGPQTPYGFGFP

[3] = molecular target: T4, His-SUMO-tagged HSV-1 UL42 (residues 1-340) (herpes simplex virus 1 (HSV-1), UniProt P10226 1-340); test: AlphaScreen or HTRF; details: both partners purified
T4 construct: also called His-SUMO-UL42; His-tagged HSV-1 UL42; source: E. coli pLysS BL21, purified as described for the HCMV NEC proteins
T4 sequence: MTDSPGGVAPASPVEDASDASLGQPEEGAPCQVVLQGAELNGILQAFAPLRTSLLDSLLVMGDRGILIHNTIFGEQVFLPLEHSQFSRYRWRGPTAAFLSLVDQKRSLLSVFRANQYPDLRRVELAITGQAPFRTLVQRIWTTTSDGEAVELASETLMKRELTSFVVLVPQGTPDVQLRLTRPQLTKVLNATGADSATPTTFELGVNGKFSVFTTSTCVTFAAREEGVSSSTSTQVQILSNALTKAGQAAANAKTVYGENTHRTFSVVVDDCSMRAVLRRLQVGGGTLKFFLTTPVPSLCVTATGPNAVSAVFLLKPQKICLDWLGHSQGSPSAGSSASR

[4] = molecular target: T5, His-tagged HCMV UL50 (residues 1-169) (human cytomegalovirus (HCMV), UniProt P16791 1-169); test: AlphaScreen or HTRF; details: both partners purified
T5 construct: also called His-UL50; tagged UL50; source: E. coli BL21 (DE3) RIPL, purified (nickel Sepharose, size exclusion chromatography); not shown: His, N-terminal, kept
T5 sequence: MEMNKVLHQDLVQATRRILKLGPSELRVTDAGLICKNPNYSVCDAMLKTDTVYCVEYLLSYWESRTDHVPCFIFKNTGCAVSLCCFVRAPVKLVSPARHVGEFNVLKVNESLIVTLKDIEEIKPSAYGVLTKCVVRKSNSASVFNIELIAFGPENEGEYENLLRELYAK

[5] = molecular target: T6, Myc-tagged HCMV UL53 (residues 50-292) (human cytomegalovirus (HCMV), UniProt P16794 50-292); test: AlphaScreen or HTRF; details: both partners purified
T6 construct: source: E. coli BL21 (DE3) RIPL, purified (glutathione-agarose, on-column PreScission digestion, size exclusion chromatography); not shown: GST, N-terminal, cleaved; Myc, N-terminal, kept
T6 sequence: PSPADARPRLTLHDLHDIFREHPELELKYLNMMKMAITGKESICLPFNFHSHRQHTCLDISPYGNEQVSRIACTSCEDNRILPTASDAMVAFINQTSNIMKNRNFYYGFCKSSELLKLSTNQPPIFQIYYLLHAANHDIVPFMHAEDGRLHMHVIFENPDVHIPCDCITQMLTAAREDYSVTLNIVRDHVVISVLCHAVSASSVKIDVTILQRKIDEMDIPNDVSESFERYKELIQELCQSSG

[6] = LINCS2 well 2, 10 μM in the assay
[7] = LINCS2 well 4, 0.4 μM in the assay
[8] = Selleck well, 50 μM in the assay

Q: Which remaining activity at 1.56 µM (HSV-1 P30-UL42 [1]; HSV1 P30-UL42, 1.56 μM compound, replicates, read-out: normalized FRET signal relative to control without inhibitor) does the source give for `CCC(=O)Nc1cccc(Oc2ccnc3[nH]ccc23)c1` [aGK2] here?
A: 101%

Q: And the remaining activity at 3.13 µM (HSV-1 P30-UL42 [1]; HSV1 P30-UL42, 3.13 μM compound, replicates, read-out: normalized FRET signal relative to control without inhibitor)?
A: 102%

Q: And the remaining activity at 6.25 µM (HSV-1 P30-UL42 [1]; HSV1 P30-UL42, 6.25 μM compound, replicates, read-out: normalized FRET signal relative to control without inhibitor)?
A: 99%

Q: And the remaining activity at 50 µM (HSV-1 P30-UL42 [1]; HSV1 P30-UL42, 50.00 μM compound, replicates, read-out: normalized FRET signal relative to control without inhibitor)?
A: 97%

Q: And the remaining activity at 25 µM (HSV-1 P30-UL42 [1]; HSV1 P30-UL42, […] compound, replicates, read-out: normalized FRET signal relative to control without inhibitor)?
A: 99%

Q: And the “inhibition in the HSV-1 P30-UL42 counterscreen assay” value (HSV-1 P30-UL42 [1]; all concentrations tested (up to 50 μM))?
A: little, if any activity

Q: And the “activity in the HTRF assay for NEC interactions” value (HCMV UL50-UL53)?
A: little, if any activity

Q: And the remaining activity at 1.56 µM (HCMV UL50-UL53; WT UL50-UL53, 1.56 μM compound, replicates, read-out: normalized FRET signal relative to control without inhibitor)?
A: 95%

Q: What about the remaining activity at 3.13 µM (HCMV UL50-UL53; WT UL50-UL53, 3.13 μM compound, replicates, read-out: normalized FRET signal relative to control without inhibitor) of the same molecule?
A: 95%

Q: And the remaining activity at 6.25 µM (HCMV UL50-UL53; WT UL50-UL53, 6.25 μM compound, replicates, read-out: normalized FRET signal relative to control without inhibitor)?
A: 92%

Q: And the remaining activity at 50 µM (HCMV UL50-UL53; WT UL50-UL53, 50.00 μM compound, replicates, read-out: normalized FRET signal relative to control without inhibitor)?
A: 93%

Q: What about the remaining activity at 25 µM (HCMV UL50-UL53; WT UL50-UL53, […] compound, replicates, read-out: normalized FRET signal relative to control without inhibitor) of the same molecule?
A: 94%

Q: How did the “HTRF Channel 2 (620 nm)” value (HCMV UL50-UL53; LINCS2 well 1, 50 μM in the assay) turn out when `C=CC(=O)N1CCC[C@@H](n2nc(-c3ccc(Oc4ccccc4)cc3)c3c(N)ncnc32)C1` [ibrutinib, reference compound] was run?
A: 5736 and 5840

Q: What about the “HTRF Channel 1 (665 nm)” value (HCMV UL50-UL53; [6]) of the same molecule?
A: 31679

Q: And the “HTRF Channel 2 (620 nm)” value (HCMV UL50-UL53; [6])?
A: 5859 and 6111

Q: What about the “HTRF Channel 2 (620 nm)” value (HCMV UL50-UL53; LINCS2 well 3, 2 μM in the assay) of the same molecule?
A: 6125 and 5780

Q: And the “HTRF Channel 1 (665 nm)” value (HCMV UL50-UL53; [7])?
A: 31815

Q: What about the “HTRF Channel 2 (620 nm)” value (HCMV UL50-UL53; [7]) of the same molecule?
A: 5791 and 5828

Q: And the “inhibition in HTRF screen” value (HCMV UL50-UL53; LINCS wells, 50, 10, 2 and 0.4 μM)?
A: Essentially no inhibition

Q: What about the “HTRF Channel 1 (665 nm)” value (HCMV UL50-UL53; [8]) of the same molecule?
A: 7468 and 7529

Q: And the “HTRF Channel 2 (620 nm)” value (HCMV UL50-UL53; [8])?
A: 8631 and 9073

Q: And the “scoring as a hit in the HTRF screen” value (HCMV UL50-UL53)?
A: not registering as a hit

Q: How did the “scoring as a hit in the HTRF screen” value (HCMV UL50-UL53) turn out when `O=C([O-])c1ccccc1-c1c2cc(Br)c(=O)cc-2oc2[c]([Hg+])c([O-])c(Br)cc12.[Na+].[Na+].[OH-]` [merbromin, reference compound] was run?
A: scored negative

Q: Which HTRF ratio (HSV-1 P30-UL42 [2]; P30-UL42 + untagged protein, A665nm/A620nm * 10000, single replicates) does the source give for “Untagged P30: untagged C-terminal 36 residues of HSV-1 UL30 (DDVAARLRAAGFGAVGAGATAEETRRMLHRAFDTLA) [reference compound]” here?
A: 26529 and 26670 and 27659

Q: And the “HTRF ratio, Mean” value (HSV-1 P30-UL42 [2]; P30-UL42 + untagged protein, triplicate)?
A: 26953

Q: What about the S/B (HSV-1 P30-UL42 [2]; P30-UL42 with untagged protein) of the same molecule?
A: 2.4

B1: Myc-tagged HSV-1 Pol C-terminal peptide P30 (UL30 residues 1200-1235) (peptide)
chain: GGGGSGGGGSGGGDDVAARLRTAGFGAVGAGATAEETRRMLHRAFDTLA
notes: source: E. coli, expressed and purified as described for Myc-UL53; not shown: Myc, N-terminal, kept
Q: Does B1 bind [3]?
A: binds

B2: Myc-tagged HCMV UL53 (residues 50-292) with glycine-serine linker (domain or fragment)
chain: GGGGSGGGGSGGGPSPADARPRLTLHDLHDIFREHPELELKYLNMMKMAITGKESICLPFNFHSHRQHTCLDISPYGNEQVSRIACTSCEDNRILPTASDAMVAFINQTSNIMKNRNFYYGFCKSSELLKLSTNQPPIFQIYYLLHAANHDIVPFMHAEDGRLHMHVIFENPDVHIPCDCITQMLTAAREDYSVTLNIVRDHVVISVLCHAVSASSVKIDVTILQRKIDEMDIPNDVSESFERYKELIQELCQSSG
notes: source: E. coli BL21 (DE3) RIPL, purified (glutathione-agarose, on-column PreScission digestion, size exclusion chromatography); not shown: GST, N-terminal, cleaved; Myc, N-terminal, kept
Q: With B2 as the molecule, how does the “HTRF ratio, fold over the background of either tagged subunit alone” value [4] read?
A: ~3 fold

B3: His-tagged HCMV UL50 (residues 1-169) (domain or fragment)
chain: T5 sequence
notes: also called His-UL50; source: E. coli BL21 (DE3) RIPL, purified (nickel Sepharose, size exclusion chromatography); not shown: His, N-terminal, kept
Q: Which Kd [5] does the source give for B3 here?
A: 220 nM and 380 nM

B4: His-tagged HCMV UL50 (residues 1-169) C35N (domain or fragment)
chain: T5 sequence with C35N
notes: source: E. coli BL21 (DE3) RIPL, purified (same methods as His-UL50); not shown: His, N-terminal, kept
Q: B4 was tested. Which Kd [5] did it give?
A: 110 nM and 190 nM

B5: His-tagged HCMV UL50 (residues 1-169) C54S (domain or fragment)
chain: T5 sequence with C54S
notes: as for B4
Q: Which Kd [5] does the source give for B5 here?
A: 140 nM and 340 nM

B6: His-tagged HCMV UL50 (residues 1-169) C79S (domain or fragment)
chain: T5 sequence with C79S
notes: as for B4
Q: How did the Kd [5] turn out when B6 was run?
A: 230 nM and 450 nM
